From patent US11090304B2 (Amgen Inc., priority 2018, dated 2021)
Like-named read-outs stand apart in the source and are kept apart here.

Biological target: GDP-bound KRAS protein (aa 1-169), containing both G12C and C118A amino acid substitutions (Homo sapiens, UniProt P01116, C118A/G12C)
Test: Coupled nucleotide exchange assay (SOS-mediated, AlphaScreen)
Assay type: biochemical

GDP-bound KRAS protein (aa 1-169), containing both G12C and C118A amino acid substitutions, sequence (P01116 1-169 isoform P01116-2 G12C/C118A): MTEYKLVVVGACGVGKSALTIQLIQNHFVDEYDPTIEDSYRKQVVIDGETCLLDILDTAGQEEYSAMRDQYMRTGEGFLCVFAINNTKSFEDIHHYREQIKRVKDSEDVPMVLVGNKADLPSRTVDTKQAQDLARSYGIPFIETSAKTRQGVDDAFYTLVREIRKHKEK

SMILES	Coupled exchange IC50 (5 min) (5 min compound pre-incubation)	further results
C=CC(=O)N1[C@@H]2C[C@H]1CN(c1nc(=O)n(-c3c(C)ccnc3C(C)C)c3nc(-c4ccccc4F)c(Cl)cc13)C2 (atropisomer, axis not shown; (M)) [Example 135, (M)-6-Chloro-7-(2-fluorophenyl)-1-(4-methyl-2-(2-propanyl)-3-pyridinyl)-4-((1R,5S)-6-(2-propenoyl)-3,6-diazabicyclo[3.1.1]heptan-3-yl)pyrido[2,3-d]pyrimidin-2(1H)-one]	–	Coupled exchange IC50 (5 min): 3.32 | nda μM
C=CC(=O)N1CCN(c2nc(=O)n(-c3c(C)ccnc3CC)c3nc(-c4ccccc4F)c(F)cc23)[C@@H](C)C1 (single isomer, unassigned) [Example 57-16-1]	1.76 | nda μM	–
C=CC(=O)N1CCN(c2nc(=O)n(-c3c(C)cnn3C(C)(C)C)c3nc(-c4ccccc4F)c(Cl)cc23)[C@@H](C)C1 [Example 55-38, 6-chloro-7-(2-fluorophenyl)-1-(4-methyl-1-(2-methyl-2-propanyl)-1H-pyrazol-5-yl)-4-((2S)-2-methyl-4-(2-propenoyl)-1-piperazinyl)pyrido[2.3-d]pyrimidin-2(1H)-one]	0.377 | nda μM	–
C=CC(=O)N1CCN(c2nc(=O)n(-c3scnc3C3CC3)c3nc(-c4ccccc4F)c(Cl)cc23)[C@@H](C)C1 [Example 56-4, 6-chloro-1-(4-cyclopropyl-1,3-thiazol-5-yl)-7-(2-fluorophenyl)-4-((2S)-2-methyl-4-(2-propenoyl)-1-piperazinyl)pyrido[2,3-d]pyrimidin-2(1H)-one]	5.32 | nda μM	–
C=CC(=O)N1CCN(c2nc(CO)c(-c3ccccc3C(C)C)c3nc(-c4ccccc4F)c(Cl)cc23)CC1 [Example 85-1]	–	IC50 (read-out: Coupled exchange IC50 (5 min), 5 min compound pre-incubation): 6.34 µM
C=CC(=O)N1CCN(c2nc(=O)n(CC3(C(F)(F)F)CC3)c3nc(Cl)c(Cl)cc23)CC1 [Example 60-2, 6,7-dichloro-4-(4-(2-propenoyl)-1-piperazinyl)-1-((1-(trifluoromethyl)cyclopropyl)methyl)pyrido[2,3-d]pyrimidin-2(1H)-one]	–	Coupled exchange IC50 (2 h) (2 h compound pre-incubation): nda | 7.62 μM
C=CC(=O)N1CCN(c2nc(=O)n(-c3ccccc3C(C)(C)C)c3nc(-c4ccccc4F)c(F)cc23)[C@@H](C)C1 [Example 58-17, 6-fluoro-7-(2-fluorophenyl)-1-(2-(2-methyl-2-propanyl)phenyl)-4-((2S)-2-methyl-4-(2-propenoyl)-1-piperazinyl)pyrido[2,3-d]pyrimidin-2(1H)-one]	1.68 | nda μM	–
C=CC(=O)N1CCN(c2nc(=O)n(-c3ccccc3C3(C(F)(F)F)CC3)c3nc(-c4c(O)cccc4F)c(F)cc23)[C@@H](C)C1 (single isomer, unassigned) [Example 59-1-2]	1.1 | nda μM	–
C=CC(=O)N1CCN(c2nc(=O)n(-c3c(C)cc(N(C)C)cc3C(C)C)c3nc(-c4ccccc4F)c(Cl)cc23)[C@@H](C)C1 (single isomer, unassigned) [Example 55-16-1]	1.05 | nda μM	–
C=CC(=O)N1CCN(c2nc(=O)n(-c3ccccc3C(C)C)c3nc(C4=CCCOC4)c(Cl)cc23)[C@@H](C)C1 [Example 54-76, 6-chloro-7-(5,6-dihydro-2H-pyran-3-yl)-4-((2S)-2-methyl-4-(2-propenoyl)-1-piperazinyl)-1-(2-(2-propanyl)phenyl)pyrido [2,3-d]pyrimidin-2(1H)-one]	5.48 | nda μM	–
C=CC(=O)N1CCN(c2nc(=O)n(C)c3nc(-c4c(O)cccc4F)c(Cl)cc23)[C@@H](C)C1 [Example 55-34, 6-chloro-7-(2-fluoro-6-hydroxyphenyl)-1-methyl-4-((2S)-2-methyl-4-(2-propenoyl)-1-piperazinyl)pyrido[2,3-d]pyrimidin-2(1H)-one]	20.8 | nda μM	–
C=CC(=O)N1CCN(c2nc(=O)n(-c3c(C(C)C)ccnc3C)c3nc(-c4ccccc4F)c(F)cc23)[C@@H](C)C1 (single isomer, unassigned) [Example 58-16-1]	11.6 | nda μM	–
C=CC(=O)N1CCN(c2nc(=O)n(-c3c(C)ccnc3C(C)C)c3nc(-c4cc(O)ccc4F)c(F)cc23)[C@@H](C)C1 (single isomer, unassigned) [Example 58-5-1]	5.6 | nda μM	–
C=CC(=O)N1CCN(c2nc(CN(C)C)c(-c3ccccc3C(C)C)c3nc(-c4ccccc4F)c(Cl)cc23)CC1 [86-2, 1-(4-(3-chloro-7-((dimethylamino)methyl)-2-(2-fluorophenyl)-8-(2-(2-propanyl)phenyl)-1,6-naphthyridin-5-yl)-1-piperazinyl)-2-propen-1-one]	6.6 | nda μM	–

The next lines start with results.

Coupled exchange IC50 (5 min) (5 min compound pre-incubation)	SMILES	further results
84.25 | nda μM	C=CC(=O)N1CCN(c2nc(=O)n(-c3c(CC)cccc3CC)c3nc(N4C[C@@H]5C[C@H]4CO5)c(Cl)cc23)[C@@H](C)C1 [Example 66-31, 6-chloro-1-(2,6-diethylphenyl)-4-((2S)-2-methyl-4-(2-propenoyl)-1-piperazinyl)-7-((1S,4S)-2-oxa-5-azabicyclo[2.2.1]heptan-5-yl)pyrido[2,3-d]pyrimidin-2(1H)-one]	–
1.12 | nda μM	C=CC(=O)N1CCN(c2nc(=O)n(-c3c(C)cccc3C(C)C)c3nc(-c4nc(N)ccc4Cl)c(F)cc23)[C@@H](C)C1 [Example 71-1, 7-(6-Amino-3-chloro-2-pyridinyl)-6-fluoro-1-(2-methyl-6-(2-propanyl)phenyl)-4-((2S)-2-methyl-4-(2-propenoyl)-1-piperazinyl)pyrido[2,3-d]pyrimidin-2(1H)-one]	–
25.3 | nda μM	C=CC(=O)N1CCN(c2nc(=O)n(-c3c(CC)cccc3CC)c3nc(N4CCC(C)(C)CC4)c(Cl)cc23)[C@@H](C)C1 [Example 66-29, 6-chloro-1-(2,6-diethylphenyl)-7-(4,4-dimethyl-1-piperindinyl)-4-((2S)-2-methyl-4-(2-propenoyl)-1-piperazinyl)pyrido[2,3-d]pyrimidin-2(1H)-one]	–
1.87 | nda μM	C=CC(=O)N1CCN(c2nc(=O)n(-c3c(C)ccnc3C(C)C)c3nc(-c4c(O)cccc4F)c(F)cc23)[C@H](C(F)F)C1 (single isomer, unassigned) [Example 75-9-1, (M)-4-((2S or 2R)-2-(difluoromethyl)-4-(2-propenoyl)-1-piperazinyl)-6-fluoro-7-(2-fluoro-6-hydroxyphenyl)-1-(4-methyl-2-(2-propanyl)-3-pyridinyl)pyrido[2,3-d]pyrimidin-2(1H)-one]	–
0.501 | nda μM	C=CC(=O)N1CCN(c2nc(=O)n(-c3c(C4CC4)ncnc3C3CC3)c3nc(-c4ccccc4F)c(F)cc23)[C@@H](C)C1 [Example 59-5, 1-(4,6-dicyclopropyl-5-pyrimidinyl)-6-fluoro-7-(2-fluorophenyl)-4-((2S)-2-methyl-4-(2-propenoyl)-1-piperazinyl)pyrido[2,3-d]pyrimidin-2(1H)-one]	–
3.29 | nda μM	C=CC(=O)N1CCN(c2nc(=O)n(-c3c(C)ccnc3C(C)C)c3nc(-c4cccc(F)c4O)c(F)cc23)[C@@H](C)C1 (atropisomer, axis not shown; (M)) [Example 72-3, (M)-6-fluoro-7-(3-fluoro-2-hydroxyphenyl)-1-(4-methyl-2-(2-propanyl)-3-pyridinyl)-4-((2S)-2-methyl-4-(2-propenoyl)-4-piperazinyl)pyrido[2,3-d]pyrimidin-2(1H)-one]	–
1.26 | nda μM	C=CC(=O)N1CCN(c2nc(=O)n(-c3c(C)ccnc3C(C)C)c3nc(-c4ccccc4F)c(Cl)cc23)[C@H](C(F)(F)F)C1 (single isomer, unassigned) [Example 78-9-1]	–
8.24 | nda μM	C=CC(=O)N1CCN(c2nc(=O)n(-c3c(C)ccnc3C(C)C)c3nc(Cl)c(Cl)cc23)[C@@H](C)C1 (atropisomer, axis not shown; (P)) [Example 61-2-1, (P)-6,7-dichloro-1-(4-methyl-2-(2-propanyl)-3-pyridinyl)-4-((2S)-2 methyl-4-(2-propenoyl)-1-piperazinyl)pyrido[2,3-d]pyrimidin-2(1H)-one]	–
5.54 | nda μM	C=CC(=O)N1C[C@@H](C)N(c2nc(=O)n(-c3c(C)ccnc3C(C)C)c3nc(-c4c(N)cccc4F)c(Cl)cc23)[C@H](C)C1 (atropisomer, axis not shown; (M)) [Example 73-18, (M)-7-(2-amino-6-fluorophenyl)-6-chloro-4-((2R,6R)-2,6-dimethyl-4-(2-propenoyl)-1-piperazinyl)-1-(4-methyl-2-(2-propanyl)-3-pyridinyl)pyrido[2,3-d]pyrimidin-2(1H)-one]	–
2.22 | nda μM	C=CC(=O)N1C[C@H]2CC[C@@H](C1)N2c1nc(=O)n(-c2c(C)ccnc2C(C)C)c2nc(-c3ccccc3F)c(Cl)cc12 (single isomer, unassigned) [Example 78-13, (M)-6-chloro-7-(2-fluorophenyl)-1-(4-methyl-2-(2-propanyl)-3-pyridinyl)-4-(3-(2-propenoyl)-3,8-diazabicyclo[3.2.1]octan-8-yl)pyrido[2,3-d]pyrimidin-2(1H)-one]	–
4.85 | nda μM	C=CC(=O)N1CCN(c2nc(=O)n(-c3c(CC)cccc3CC)c3nc(-c4ccccc4F)c(Cl)cc23)[C@@H](C(=O)O)C1 [Example 96, (2R)-1-(6-Chloro-1-(2,6-diethylphenyl)-7-(2-fluorophenyl)-2-oxo-1,2-dihydropyrido[2,3-d]pyrimidin-4-yl)-4-(2-propenoyl)-2-piperazinecarboxylic acid]	–
7.49 | nda μM	C=CC(=O)N1CCN(c2nc(=O)n(-c3c(F)cccc3C(C)C)c3nc(-c4c(O)cccc4F)c(F)cc23)[C@@H](C)C1 (single isomer, unassigned) [Example 59-2-2]	–
7.55 | nda μM	C=CC(=O)N1C[C@@H](C)N(c2nc(=O)n(-c3c(C)ccnc3C(C)C)c3nc(-c4c(O)cccc4F)c(Cl)cc23)[C@H](C)C1 (atropisomer, axis not shown; (M)) [Example 73-19, (M)-6-chloro-4-((2R,6R)-2,6-dimethyl-4-(2-propenoyl)-1-piperazinyl)-7-(2-fluoro-6-hydroxyphenyl)-1-(4-methyl-2-(2-propanyl)-3-pyridinyl)pyrido[2,3-d]pyrimidin-2(1H)-one]	–
